In experiment [1] the test system is A/PR8/34 or A/Ud/72 (with X31 or A/Aichi/68 HA) IAV. It counts as cell-based, influenza A virus in human lung epithelial cell line Calu3. Conditions: FIG. 12B, PR8 and XUd viruses.
Experiment [2] concerns XUd (WT1) or PR8 (WT2) influenza viruses. It is filed as cell-based, influenza virus in MDCK cells. Conditions: at higher concentrations.

Structures are written as SMILES.

Turning to `COC(=O)OCOc1c2n(ccc1=O)N([C@@H]1c3ccccc3SCc3c1ccc(F)c3F)[C@@H]1COCCN1C2=O` [baloxavir, baloxavir marboxil], the “virion yield vs. fraction of filamentous particles produced” value in experiment [1] is on record as “lower virion yields are associated with increased fraction of filamentous particles produced”.

Consider `CCOC(=O)C1=C[C@@H](OC(CC)CC)[C@H](NC(C)=O)[C@@H](N)C1` [oseltamivir], for which, in experiment [2], the “effect on virion yield” value is on record as “reduces virion yield”, the “size of individual virus particles” value was “remains enriched in spherical particles” and the virion aggregation entry is recorded as “induces virion aggregation”.

The values are drawn from patent US20260202298A1, “HIGH-THROUGHPUT MEASUREMENT OF P[…] PARTICLE COUNTS, DISTRIBUTIONS, AND COMPOSITION” (priority 2021, published 2026).
